From patent publication US12122776B2, “Tetracyclic compounds and uses thereof” (Gilead Sciences, Inc., priority 2020, dated 2024)
Like-named read-outs stand apart in the source and are kept apart here.

Columns and labels:
Format in all cases: cell-based
[1] = test system: HIV-1 (IIIB); experiment: Antiviral assay in MT-4 cells; conditions: Human immunodeficiency virus 1, MT4, 120 h; replication of HIV-1 (IIIB) in MT-4 cells, 5 days incubation, Cell Titer Glo
Protocol: Example 24: HIV MT-4 Antiviral and Cytotoxicity Assay
Antiviral Assay in MT-4 Cells
Compounds were tested in a high-throughput 384-well assay format for their ability to inhibit the replication of HIV-1 (IIIB) in MT-4 cells. Compounds were serially diluted (1:3) in DMSO on 384-well polypropylene plates and further diluted 200-fold into complete RPMI media (10% FBS, 1% P/S) using the Biotek Micro Flow and Labcyte ECHO acoustic dispenser. Each plate contained up to 8 test compounds, with negative (No Drug Control) and 5 μM AZT positive controls. MT-4 cells were pre-infected with 10 μL of either RPMI (mock-infected) or a fresh 1:250 dilution of HIV-1 IIIB concentrated virus stock. Infected and uninfected MT-4 cells were further diluted in complete RPMI media and added to each plate using a Micro Flow dispenser. After 5 days incubation in a humidified and temperature controlled incubator (37° C.), Cell Titer Glo (Promega) was added to the assay plates and chemiluminescence read using an Envision plate-reader. EC50 values were defined as the compound concentration that causes a 50% decrease in luminescence signal, and were calculated using a sigmoidal dose-response model to generate curve fits.

[2] = test system: pLai RLuc reporter virus; experiment: HIV MT-4 serum shift antiviral reporter assay; conditions: Human immunodeficiency virus 1, MT4, 72 h
Protocol: Example 25: HIV MT-4 Serum Shift Antiviral Reporter Assay
To quantify the amount of protein binding to human serum, compounds were serially diluted (1:3) in DMSO and acoustically transferred onto 384-well assay plates via a Labcyte ECHO robot. Each plate contained up to 8 test compounds, including negative and positive controls, (DMSO, 5 μM AZT respectively). Assay plates were prepared in duplicate, and tested in either CCM (cell culture media) or HS/CCM (human serum/cell culture media). MT-4 cells were first pre-infected with pLai RLuc reporter virus for 2 h at 37° C., then further diluted in either CCM (RPMI media, 10% FBS, 1% P/S) or HS/CCM (RPMI media, 10% FBS, 50% HS, 1% P/S), and subsequently added to each plate using a Biotek Micro Flow dispenser. After a 72-h incubation in a humidified and temperature controlled incubator (37° C.), Renilla Glo (Promega) was added to all assay plates and chemiluminescence read using an Envision plate-reader. EC50 values were defined as the compound concentration that causes a 50% decrease in luminescence signal, and were calculated using a sigmoidal dose-response model to generate curve fits. To determine the amount of protein binding, EC50 fold shifts (or EC50 shifts) were calculated by dividing EC50 (HS/CCM)/EC50 (CCM).

[3] = Cytotoxicity assay in MT-4 cells; conditions: human; uninfected MT-4 cells, 5 days incubation, Cell Titer Glo
Protocol: Cytotoxicity Assay in MT-4 Cells Assays were performed as above except uninfected MT-4 cells were added to each well containing test compound. In addition, 10 μM puromycin was added to the last column of each assay plate to assess a base level of cytotoxicity.

| SMILES | EC50 [1] [µM] | EC50 ([2]; read-out: Antiviral Serum Shift RLuc 50% HS) [µM] | EC50 ([2]; read-out: Antiviral Serum Shift RLuc CCM) [µM] | CC50 at 5 days [3] [µM] |
| --- | --- | --- | --- | --- |
| O=C(NCc1c(F)cc(F)cc1F)c1c2n3c(c(O)c1=O)C(=O)N1CCCC[C@@]3(C[C@H]2F)C1 (single isomer, unassigned) [Compound 8-2] | 0.00229 |  |  |  |
| O=C(NCc1c(F)cc(F)cc1F)c1c2n3c(c(O)c1=O)C(=O)N1CCCC[C@]3(C1)[C@H](O)[C@H]2O (single isomer, unassigned) [Compound 11-2] |  | 0.0484 | 0.00152 |  |
| CO[C@H]1C[C@@]23CCCCN(C2)C(=O)c2c(O)c(=O)c(C(=O)NCc4c(F)cc(F)cc4F)c1n23 (single isomer, unassigned) [Compound 12-3] | 0.00447 |  |  | 14.8 |
| CO[C@@H]1C[C@]23CCCCN(C2)C(=O)c2c(O)c(=O)c(C(=O)NCc4c(F)cc(F)cc4F)c1n23 (single isomer, unassigned) [Compound 12-4] | 0.00733 |  |  |  |
| CO[C@@H]1[C@@H](OC)c2c(C(=O)NCc3c(F)cc(F)cc3F)c(=O)c(O)c3n2[C@@]12CCCCN(C2)C3=O (single isomer, unassigned) [Compound 13-1] | 0.0017 |  |  | 27.8 |
| CO[C@@H]1c2c(C(=O)NCc3c(F)cc(F)cc3F)c(=O)c(O)c3n2[C@]2(CCCCN(C2)C3=O)[C@H]1OC (single isomer, unassigned) [Compound 13-2] | 0.0011 |  |  | 24.7 |
| CO[C@@H]1c2c(C(=O)NCc3c(F)cc(F)cc3F)c(=O)c(O)c3n2[C@@]2(CCCCN(C2)C3=O)[C@H]1OC (single isomer, unassigned) [Compound 13-3] | 0.0095 |  |  | 10.1 |
| CO[C@@H]1[C@@H](OC)c2c(C(=O)NCc3c(F)cc(F)cc3F)c(=O)c(O)c3n2[C@]12CCCCN(C2)C3=O (single isomer, unassigned) [Compound 13-4] | 0.0107 |  |  | 30.7 |
| O=C(NCc1c(F)cc(F)cc1F)c1c2n3c(c(O)c1=O)C(=O)N1CCCC[C@]3(CC2CO)C1 (single isomer, unassigned) [Compound 16] | 0.0028 |  |  | 7.45 |
| O=C(NCc1cccc(Cl)c1F)c1c2n3c(c(O)c1=O)C(=O)N1CCCC[C@]3(CC2)C1 [Compound 6, (6aS)—N-(3-chloro-2-fluorobenzyl)-11-hydroxy-1,10-dioxo-1,3,4,5,6,7,8,10-octahydro-2,6a-methano[1,4]diazonino[9,1,2-cd]indolizine-9-carboxamide] | 0.0026 |  |  | 3.68 |
| CO[C@H]1CC[C@H](C)N2C[C@]13CCc1c(C(=O)NCc4ccc(F)cc4F)c(=O)c(O)c(n13)C2=O [Compound 19-1, (1R,11S,14S)—N-[(2.4 difluorophenyl)methyl]-7-hydroxy-14-methoxy-11-methyl-6,9-dioxo-10,15-diazatetracyclo[6.6.1.11,10.04,15]hexadeca-4.7 diene-5-carboxamide] | 0.0021 |  |  | 4.6 |
| CO[C@H]1C=C[C@H](C)N2C[C@]13CCc1c(C(=O)NCc4ccc(F)cc4F)c(=O)c(O)c(n13)C2=O [Compound 19-2, (1R,11S,14S)—N-[(2.4 difluorophenyl)methyl]-7-hydroxy-14-methoxy-11-methyl-6,9-dioxo-10,15-diazatetracyclo[6.6.1.11,10.04,15]hexadeca-4,7,12-triene-5-carboxamide] | 0.00086 |  |  | 1.87 |
| CO[C@H]1C=C[C@H](C)N2C[C@]13CC(O)c1c(C(=O)NCc4ccc(F)cc4F)c(=O)c(O)c(n13)C2=O (stereo partly drawn) [Compound 19-3, (1R,11S,14S)—N-[(2.4 difluorophenyl)methyl]-3.7 dihydroxy-14-methoxy-11-methyl-6,9-dioxo-10,15-diazatetracyclo[6.6.1.11,10.04,15]hexadeca-4,7,12-triene-5-carboxamide] | 0.0012 |  |  | 6.95 |
| CO[C@H]1C=C[C@H](C)N2C[C@]13CCc1c(C(=O)NCc4c(F)cc(F)cc4F)c(=O)c(O)c(n13)C2=O [Compound 22, (3S,6S,6aR)-11-hydroxy-6-methoxy-3-methyl-1,10-dioxo-N-(2,4,6-trifluorobenzyl)-1,3,6,7,8,10-hexahydro-2,6a-methano[1,4]diazonino[9,1,2-cd]indolizine-9-carboxamide] | 0.0018 |  |  | 1.94 |
